Measurements taken from patent publication US11420973B2, “Amide substituted indole compounds useful as TLR inhibitors” (BRISTOL-MYERS SQUIBB COMPANY, priority 2017, dated 2022).

Key:
[1] = molecular target: human TLR9 (Homo sapiens (Human), UniProt Q9NR96); experiment: TLR9 inhibition reporter assay (HEK-Blue SEAP reporter, ODN2006 stimulation); details: read-out: TLR9 IC50; HEK-Blue cells overexpressing human TLR9, ODN2006 5 nM, SEAP reporter;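 note: SEAP reporter under IFN-β minimal promoter with five NF-κB and AP-1 sites, 22 h incubation, compounds 0.05 nM–50 µM, inhibition relative to agonist plus DMSO versus known inhibitor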
Description: HEK-Blue™-cells (Invivogen) overexpressing human TLR7, TLR8 or TLR9 receptors were used for screening inhibitors of these receptors using an inducible SEAP (secreted embryonic alkaline phosphatase) reporter gene under the control of the IFN-β minimal promoter fused to five NF-κB and AP-1-binding sites. Briefly, cells are seeded into Greiner 384 well plates (15000 cells per well for TLR7, 20,000 for TLR8 and 25,000 for TLR9) and then treated with test compounds in DMSO to yield a final dose response concentration range of 0.05 nM-50 μM. After a 30 minute compound pre-treatment at room temperature, the cells are then stimulated with a TLR7 ligand (gardiquimod at a final concentration of 7.5 μM), TLR8 ligand (R848 at a final concentration of 15.9 μM) or TLR9 ligand (ODN2006 at a final concentration of 5 nM) to activate NF-κB and AP-1 which induce the production of SEAP. After a 22 hour incubation at 37° C., 5% CO2, SEAP levels are determined with the addition of HEK-Blue™ Detection reagent (Invivogen), a cell culture medium that allows for detection of SEAP, according to manufacturer's specifications.

[2] = molecular target: human TLR7 (Homo sapiens (Human), UniProt Q9NYK1); experiment: TLR7 inhibition reporter assay (HEK-Blue SEAP reporter, gardiquimod stimulation); type: cell-based; details: HEK-Blue cells overexpressing human TLR7, gardiquimod 7.5 μM
[3] = molecular target: human TLR8 (Homo sapiens (Human), UniProt Q9NR97); experiment: TLR8 inhibition reporter assay (HEK-Blue SEAP reporter, R848 stimulation); details: read-out: TLR8 IC50; HEK-Blue cells overexpressing human TLR8, R848 15.9 μM, SEAP reporter;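 note: SEAP driven by IFN-β minimal promoter with NF-κB and AP-1 sites, 22 h incubation, compounds 0.05 nM–50 µM, inhibition scaled between agonist plus DMSO and reference inhibitor wells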
Chain of human TLR8 (Q9NR97 27-1041): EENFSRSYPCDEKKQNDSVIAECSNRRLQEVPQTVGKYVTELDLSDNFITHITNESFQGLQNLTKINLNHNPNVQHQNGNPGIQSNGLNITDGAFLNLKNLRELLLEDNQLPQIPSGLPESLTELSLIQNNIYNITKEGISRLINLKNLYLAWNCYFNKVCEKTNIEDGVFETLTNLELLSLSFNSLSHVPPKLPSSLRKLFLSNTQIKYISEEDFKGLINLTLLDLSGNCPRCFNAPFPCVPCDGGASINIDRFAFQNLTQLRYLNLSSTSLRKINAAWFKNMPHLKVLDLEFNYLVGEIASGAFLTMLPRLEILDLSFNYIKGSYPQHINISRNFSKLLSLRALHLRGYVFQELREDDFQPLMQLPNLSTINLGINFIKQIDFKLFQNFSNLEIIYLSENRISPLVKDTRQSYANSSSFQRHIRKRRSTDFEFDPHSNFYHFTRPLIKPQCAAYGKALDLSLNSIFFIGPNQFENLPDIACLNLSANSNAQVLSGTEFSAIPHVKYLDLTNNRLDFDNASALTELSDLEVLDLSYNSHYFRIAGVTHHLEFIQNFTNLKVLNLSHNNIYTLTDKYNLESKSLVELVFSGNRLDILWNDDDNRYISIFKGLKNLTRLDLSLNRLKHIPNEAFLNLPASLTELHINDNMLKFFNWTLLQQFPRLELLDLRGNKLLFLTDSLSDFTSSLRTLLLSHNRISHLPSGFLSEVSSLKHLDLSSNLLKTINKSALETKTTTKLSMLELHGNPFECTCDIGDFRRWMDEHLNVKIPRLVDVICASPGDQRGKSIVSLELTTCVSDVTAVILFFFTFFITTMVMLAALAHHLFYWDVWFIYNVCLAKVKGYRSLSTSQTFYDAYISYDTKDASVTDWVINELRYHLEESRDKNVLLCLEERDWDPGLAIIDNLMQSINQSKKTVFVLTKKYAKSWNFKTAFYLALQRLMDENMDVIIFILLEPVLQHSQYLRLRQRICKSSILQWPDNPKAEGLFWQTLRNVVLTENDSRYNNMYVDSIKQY

Chain of human TLR7 (Q9NYK1 27-1049): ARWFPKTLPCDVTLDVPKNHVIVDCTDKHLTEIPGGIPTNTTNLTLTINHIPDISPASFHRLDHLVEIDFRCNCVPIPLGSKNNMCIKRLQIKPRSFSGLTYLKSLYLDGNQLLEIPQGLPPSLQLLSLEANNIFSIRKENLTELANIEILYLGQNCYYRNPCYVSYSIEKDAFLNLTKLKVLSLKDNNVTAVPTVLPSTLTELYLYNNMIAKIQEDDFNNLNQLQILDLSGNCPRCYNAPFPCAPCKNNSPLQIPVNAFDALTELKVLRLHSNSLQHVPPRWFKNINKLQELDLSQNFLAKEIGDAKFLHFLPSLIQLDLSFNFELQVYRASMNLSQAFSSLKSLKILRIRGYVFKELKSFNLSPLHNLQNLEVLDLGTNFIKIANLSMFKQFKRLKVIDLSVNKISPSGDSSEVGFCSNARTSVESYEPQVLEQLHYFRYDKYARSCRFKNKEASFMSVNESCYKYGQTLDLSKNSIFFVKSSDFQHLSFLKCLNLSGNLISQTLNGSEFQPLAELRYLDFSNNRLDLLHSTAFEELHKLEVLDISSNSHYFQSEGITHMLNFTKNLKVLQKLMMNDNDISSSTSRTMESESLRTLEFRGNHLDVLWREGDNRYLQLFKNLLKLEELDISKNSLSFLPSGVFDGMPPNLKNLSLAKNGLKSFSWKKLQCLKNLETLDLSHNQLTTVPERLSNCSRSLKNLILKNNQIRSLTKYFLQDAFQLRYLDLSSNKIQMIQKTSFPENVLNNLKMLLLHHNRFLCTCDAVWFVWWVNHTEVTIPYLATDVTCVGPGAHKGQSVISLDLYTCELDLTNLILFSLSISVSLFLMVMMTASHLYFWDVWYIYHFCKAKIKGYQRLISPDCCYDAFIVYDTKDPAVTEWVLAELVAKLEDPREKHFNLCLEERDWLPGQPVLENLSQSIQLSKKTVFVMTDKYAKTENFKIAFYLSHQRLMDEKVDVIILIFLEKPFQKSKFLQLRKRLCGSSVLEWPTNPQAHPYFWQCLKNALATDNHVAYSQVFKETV
Chain of human TLR9 (Q9NR96 26-1032): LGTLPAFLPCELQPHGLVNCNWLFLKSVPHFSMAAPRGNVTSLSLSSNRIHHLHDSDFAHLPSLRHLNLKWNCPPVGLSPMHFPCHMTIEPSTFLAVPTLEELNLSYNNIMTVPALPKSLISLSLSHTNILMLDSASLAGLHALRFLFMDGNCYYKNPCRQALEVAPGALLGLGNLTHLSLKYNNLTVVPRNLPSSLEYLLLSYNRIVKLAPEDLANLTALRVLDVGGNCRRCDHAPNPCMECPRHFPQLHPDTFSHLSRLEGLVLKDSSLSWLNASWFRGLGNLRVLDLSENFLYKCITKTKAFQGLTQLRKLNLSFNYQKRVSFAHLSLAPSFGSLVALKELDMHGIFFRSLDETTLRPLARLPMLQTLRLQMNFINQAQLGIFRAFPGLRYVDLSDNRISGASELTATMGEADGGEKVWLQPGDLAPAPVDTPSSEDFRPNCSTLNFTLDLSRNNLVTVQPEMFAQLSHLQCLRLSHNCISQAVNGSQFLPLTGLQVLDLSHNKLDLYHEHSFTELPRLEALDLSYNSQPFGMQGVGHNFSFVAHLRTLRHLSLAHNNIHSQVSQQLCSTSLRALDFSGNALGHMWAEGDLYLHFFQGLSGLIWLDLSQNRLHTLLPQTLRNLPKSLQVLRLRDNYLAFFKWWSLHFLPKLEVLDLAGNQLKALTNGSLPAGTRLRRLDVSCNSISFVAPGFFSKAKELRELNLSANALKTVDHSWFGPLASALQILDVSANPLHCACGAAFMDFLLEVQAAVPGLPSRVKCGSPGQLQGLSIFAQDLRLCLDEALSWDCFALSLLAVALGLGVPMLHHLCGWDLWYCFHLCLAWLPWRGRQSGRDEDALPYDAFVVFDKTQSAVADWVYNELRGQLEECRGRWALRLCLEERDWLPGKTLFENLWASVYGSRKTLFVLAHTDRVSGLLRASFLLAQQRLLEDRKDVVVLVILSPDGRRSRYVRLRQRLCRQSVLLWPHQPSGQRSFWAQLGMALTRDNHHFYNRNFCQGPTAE

SMILES	IC50 [1] [µM]	IC50 [2] [µM]	IC50 [3] [µM]
CCc1c(-c2ccc(OC)c(OC)c2)[nH]c2ccc(C(=O)N3CCN(c4ccc(C(F)(F)F)cn4)CC3)cc12 [Example 61, (2-(3,4-dimethoxyphenyl)-3-ethyl-1H-indol-5-yl)(4-(5-(trifluoromethyl)pyridin-2-yl)piperazin-1-yl)methanone]	10.2	4.12	1.62
CCN(CCN(C)C)C(=O)c1ccc2[nH]c(-c3cc(C)nc(C)c3)c(C(C)C)c2c1 [Example 93, N-(2-(dimethylamino)ethyl)-2-(2,6-dimethylpyridin-4-yl)-N-ethyl-3-isopropyl-1H-indole-5-carboxamide]	0.594	0.0029	0.0014
CCc1c(-c2ccc(OC)c(OC)c2)[nH]c2ccc(C(=O)N3CCN(CCO)CC3)cc12 [Example 40, (2-(3,4-dimethoxyphenyl)-3-ethyl-1H-indol-5-yl)(4-(2-hydroxyethyl)piperazin-1-yl)methanone]	8.7	0.545	0.0057
Cc1cc(-c2[nH]c3ccc(C(C)C(=O)N4CCCC(CCN)C4)cc3c2C(C)C)ccn1 (stereo not drawn) [Example 206, 1-(3-(2-aminoethyl)piperidin-1-yl)-2-(3-isopropyl-2-(2-methylpyridin-4-yl)-1H-indol-5-yl)propan-1-one]	0.686	0.517	0.126
Cc1cc(-c2[nH]c3ccc(C(C)(C)C(=O)NCC4(O)CN5CCC4CC5)cc3c2C(C)C)ccn1 (stereo not drawn) [Example 174, N-((3-hydroxyquinuclidin-3-yl)methyl)-2-(3-isopropyl-2-(2-methylpyridin-4-yl)-1H-indol-5-yl)-2-methylpropanamide]	2.06	0.054	0.55
Cc1cc(-c2[nH]c3ccc(C(=O)N(C)C4CCN(C)CC4)cc3c2C(C)C)cc(C)n1 [Example 101, 2-(2,6-dimethylpyridin-4-yl)-3-isopropyl-N-methyl-N-(1-methylpiperidin-4-yl)-1H-indole-5-carboxamide]	0.776	0.0019	0.00034
CCc1c(-c2ccc(OC)c(OC)c2)[nH]c2ccc(C(=O)N3CCN(CC)CC3)cc12 [Example 39, (2-(3,4-dimethoxyphenyl)-3-ethyl-1H-indol-5-yl)(4-ethylpiperazin-1-yl)methanone]	4.41	0.367	0.0022
CCc1c(-c2ccc(OC)c(OC)c2)[nH]c2ccc(C(=O)NCCCN(C)C)cc12 [Example 75, 2-(3,4-dimethoxyphenyl)-N-(3-(dimethylamino)propyl)-3-ethyl-1H-indole-5-carboxamide]	0.25	0.124	0.0076
Cc1cc(-c2[nH]c3ccc(C(C)C(=O)NC4CCCC(N)C4)cc3c2C(C)C)ccn1 (stereo not drawn) [Example 219, N-(3-aminocyclohexyl)-2-(3-isopropyl-2-(2-methylpyridin-4-yl)-1H-indol-5-yl)propanamide]	1.75	0.256	0.182
COc1ccc(-c2[nH]c3ccc(C(=O)N4C[C@@H]5C[C@H]4CN5)cc3c2C(C)C)cc1OC [Example 5, ((1S,4S)-2,5-diazabicyclo[2.2.1]heptan-2-yl)(2-(3,4-dimethoxyphenyl)-3-isopropyl-1H-indol-5-yl)methanone]	1.38	0.043	0.043
Cc1cc(-c2[nH]c3ccc(C(C)C(=O)NC4CN5CCC4CC5)cc3c2C(C)C)ccn1 (stereo not drawn) [Example 192, 2-(3-isopropyl-2-(2-methylpyridin-4-yl)-1H-indol-5-yl)-N-(quinuclidin-3-yl)propanamide]	1.53	0.071	0.142
CCc1c(-c2ccc(OC)c(OC)c2)[nH]c2ccc(C(=O)N3CCN(c4ncccn4)CC3)cc12 [Example 57, (2-(3,4-dimethoxyphenyl)-3-ethyl-1H-indol-5-yl)(4-(pyrimidin-2-yl)piperazin-1-yl)methanone]	> 50	0.577	0.218
CCc1c(-c2ccc(OC)c(OC)c2)[nH]c2ccc(C(=O)N3CCC(N4CCCCC4)CC3)cc12 [Example 56, [1,4′-bipiperidin]-1′-yl(2-(3,4-dimethoxyphenyl)-3-ethyl-1H-indol-5-yl)methanone]	2.19	0.112	0.013
CCc1c(-c2ccc(OC)c(OC)c2)[nH]c2ccc(C(=O)NCC(C)(C)CO)cc12 [Example 72, 2-(3,4-dimethoxyphenyl)-3-ethyl-N-(3-hydroxy-2,2-dimethylpropyl)-1H-indole-5-carboxamide]	> 50	0.579	0.408
Cc1cc(-c2[nH]c3ccc(C(C)C(=O)N[C@@H]4CCNC4)cc3c2C(C)C)ccn1 (stereo partly drawn) [Example 188, 2-(3-isopropyl-2-(2-methylpyridin-4-yl)-1H-indol-5-yl)-N—((R)-pyrrolidin-3-yl)propanamide]	2.62	0.458	0.387
CCc1c(-c2ccc(OC)c(OC)c2)[nH]c2ccc(C(=O)NCCCN3CCCCC3)cc12 [Example 53, 2-(3,4-dimethoxyphenyl)-3-ethyl-N-(3-(piperidin-1-yl)propyl)-1H-indole-5-carboxamide]	2	0.258	0.0081
CCc1c(-c2ccc(OC)c(OC)c2)[nH]c2ccc(C(=O)N(C)CCN(C)C)cc12 [Example 76, 2-(3,4-dimethoxyphenyl)-N-(2-(dimethylamino)ethyl)-3-ethyl-N-methyl-1H-indole-5-carboxamide]	4.89	0.056	0.0039

Results, then the molecule that gave them:

IC50 [1] [µM]	IC50 [2] [µM]	IC50 [3] [µM]	SMILES
2.51	0.115	0.0079	CCc1c(-c2ccc(OC)c(OC)c2)[nH]c2ccc(C(=O)NCCN(C)C)cc12 [Example 17, 2-(3,4-dimethoxyphenyl)-N-[2-(dimethylamino)ethyl]-3-ethyl-1H-indole-5-carboxamide]
3.94	0.28	0.194	CNCC(=O)N1CC2CN(C(=O)c3ccc4[nH]c(-c5ccc(OC)c(OC)c5)c(C(C)C)c4c3)CC2C1 (stereo not drawn) [Example 16, 1-(5-(2-(3,4-dimethoxyphenyl)-3-isopropyl-1H-indole-5-carbonyl)hexahydropyrrolo[3,4-c]pyrrol-2(1H)-yl)-2-(methylamino)ethanone]
3.71	0.186	0.014	CCc1c(-c2ccc(OC)c(OC)c2)[nH]c2ccc(C(=O)N3CCC(N4CCN(C)CC4)CC3)cc12 [Example 25, (2-(3,4-dimethoxyphenyl)-3-ethyl-1H-indol-5-yl)(4-(4-methylpiperazin-1-yl)piperidin-1-yl)methanone]
2.16	0.061	0.061	COc1ccc(-c2[nH]c3ccc(C(=O)N4CC5CN(C)CC5C4)cc3c2C(C)C)cc1OC (stereo not drawn) [Example 13, (2-(3,4-dimethoxyphenyl)-3-isopropyl-1H-indol-5-yl)(5-methylhexahydropyrrolo[3,4-c]pyrrol-2(1H)-yl)methanone]
37.4	0.764	0.132	CCc1c(-c2ccc(OC)c(OC)c2)[nH]c2ccc(C(=O)Nc3cnn(C4COC4)c3)cc12 [Example 21, 2-(3,4-dimethoxyphenyl)-3-ethyl-N-(1-(oxetan-3-yl)-1H-pyrazol-4-yl)-1H-indole-5-carboxamide]
> 50	0.051	0.105	COCCN(C)C(=O)c1ccc2[nH]c(-c3cc(C)nc(C)c3)c(C(C)C)c2c1 [Example 106, 2-(2,6-dimethylpyridin-4-yl)-3-isopropyl-N-(2-methoxyethyl)-N-methyl-1H-indole-5-carboxamide]
2.64	0.466	0.241	Cc1cc(-c2[nH]c3ccc(C(C)C(=O)NCC4CCCNC4)cc3c2C(C)C)ccn1 (stereo not drawn) [Example 213, 2-(3-isopropyl-2-(2-methylpyridin-4-yl)-1H-indol-5-yl)-N-(piperidin-3-ylmethyl)propanamide]
36	0.606	0.645	CCN(CC)C(=O)C1CCCN(CC(=O)N2CC3CN(C(=O)c4ccc5[nH]c(-c6ccc(OC)c(OC)c6)c(C(C)C)c5c4)CC3C2)C1 (single isomer, unassigned) [Example 11, 1-(2-{5-[2-(3,4-dimethoxyphenyl)-3-(propan-2-yl)-1H-indole-5-carbonyl]-octahydropyrrolo[3,4-c]pyrrol-2-yl}-2-oxoethyl)-N,N-diethylpiperidine-3-carboxamide]
5	0.821	1.47	Cc1cc(-c2[nH]c3ccc(C(C)C(=O)NC[C@H]4CCNC4)cc3c2C(C)C)ccn1 (stereo partly drawn) [Example 212, 2-(3-isopropyl-2-(2-methylpyridin-4-yl)-1H-indol-5-yl)-N—(((S)-pyrrolidin-3-yl)methyl)propanamide]
2.7	0.144	0.0048	CCc1c(-c2ccc(OC)c(OC)c2)[nH]c2ccc(C(=O)NCCN3CCCC3)cc12 [Example 48, 2-(3,4-dimethoxyphenyl)-3-ethyl-N-(2-(pyrrolidin-1-yl)ethyl)-1H-indole-5-carboxamide]
0.566	0.159	0.091	Cc1cc(-c2[nH]c3ccc(C(C)(C)C(=O)N4CCC(N)CC4)cc3c2C(C)C)ccn1 [Example 153, 1-(4-aminopiperidin-1-yl)-2-(3-isopropyl-2-(2-methylpyridin-4-yl)-1H-indol-5-yl)-2-methylpropan-1-one]
20.8	0.033	0.059	Cc1cc(-c2[nH]c3ccc(C(=O)N(C)CCO)cc3c2C(C)C)cc(C)n1 [Example 105, 2-(2,6-dimethylpyridin-4-yl)-N-(2-hydroxyethyl)-3-isopropyl-N-methyl-1H-indole-5-carboxamide]
